Like-named read-outs stand apart in the source and are kept apart here.
Assays:
HIV-1 IN = HIV-1 IN (Human immunodeficiency virus type 1 group M subtype B, UniProt P12497); assay: biochemical
HIVLAI = assay: Anti-HIV assay, protection from HIV-induced cell death; type: cell-based; conditions: Human immunodeficiency virus 1, MT2, 72 h, read-out: ED50 (concentration that inhibits HIV-induced cell death by 50%)
Method: Anti-HIV assays were performed as described above. […] The compounds were then two-fold serially diluted in triplicate. To each 50 μl of diluted compound, 50 μl of HIVLAI was added and the virus-drug mixture was incubated for 1 hr at 37° C. […] Final multiplicity of infection (MOI) was 1-5. Cells were harvested to quantitate cytopathic effect using a neutral red dye assay as described.

MT-2 cells = conditions: 48 hours
Excerpt: The chemical structures of the compounds are illustrated in FIGS. 1-4. In FIG. 1a, the D- and meso-isomers of L-chicoric acid are identical in this illustrative format. […] The first compound in Table 1, L-chicoric acid, a previously described DCTA, is included for reference. LD5, the 5% lethal dose, is a measure of the toxicity of compound to living, cultured cells. It is the concentration at which cell growth is inhibited by 5%. […] Most simply understood, disintegration is a term used to refer to the reverse of integration.
Cell toxicity and anti-HIV assays were performed as reported above. […] Cells were incubated with drug for 48 hours at 37° C., then harvested for cell viability in a neutral red dye assay as described.

HIVNL4-3 clone 7-1 = type: cell-based, HIV-1; conditions: for concentration of the drug in the combination with L-CCA giving Fa: NL4-3clone7-1, combined with L-CCA
HIVNL4-3 M184V = type: cell-based, HIV-1; conditions: for concentration of the drug in the combination with L-CCA giving Fa: NL4-3cloneM184V, combined with L-CCA; for susceptibility of the clone to the drug alone: clone with methionine to valine mutation in RT
Method: (§1) For each of these HIV clones, the ED50 was determined for the anti-HIV compounds ZDV, DDC, DDI, the protease inhibitor (PI) Nelfinavir (provided by Agouron Pharmaceuticals, San Diego), and L-CCA.
(§2) Molecular clones of HIV included wild-type HIVNL4-3, HIVNL4-3 M184V, and HIVNL4-3 JF26/A7, All three clones were a generous gift from P. Krogstad (UCLA, Los Angeles, Calif.). Viruses were initially, transfected in adherent HeLa cells using Lipofectin®. After 48 hours, H9 cells were added. Following 24 hours of co-culture, non-adherent cells were removed and cultured. Cells were monitored by indirect immunofluorescence and RT release as described below until the culture was 100% infected by HIV-1. Supernatant fluids were collected and clarified of cells by low-speed centrifugation followed by filtration through 0.45 μm filters.
(§3) Anti-HIV activity of compounds was determined both alone and in combination using a cytopathicity based assay as described above. […] The fifty-percent effective dose (ED50) was calculated for triplicate infections. Mean ED50 (shown in FIG. 5) were calculated for each drug against each HIV variant from a minimum of three experiments performed in triplicate.
(§4) Experiments were designed at a fixed ratio of drugs; the ratio for each drug combination was determined based on the ED50 of each drug alone against each HIV variant. Combination indices were calculated on representative experiments performed in triplicate according to the following formula of Chou and Talalay: fa/fu=(D/Dm)^m
(§5) Where fa is the fraction affected by the dose, fu is the unaffected fraction, D is the dose of the drug, Dm is the median-effect dose determined to be the x-intercept of the median-effect plot, and m is the sigmoidicity of the dose-effect curve, determined by the slope of the median-effect plot. The median effect plot is based on the following equation: log(fa/fu)=^m log (D)−m log (Dm)

HIVNL4-3 JF26/A7 = conditions: for concentration of the drug in the combination with L-CCA giving Fa: NL4-3cloneJF26/A7, combined with L-CCA
Method: as §1, §2, §3, §4, §5

HIV-1NL4-3clone1-D4 = type: cell-based; conditions: clones 7-1, 7-3 and 1-D4, FIG. 16a
Method: Cloning and sequencing of virus from the HIVNL4-3 passaged in the presence of 8 μM L-chicoric acid was undertaken to determine the molecular basis for resistance to L-chicoric acid and to isolate a resistant HIV clone.
This cloning was accomplished through site-directed mutagenesis introducing several silent mutations immediately upstream and downstream of the integrase gene. These mutations generated two unique restriction sites: an upstream SacII and a downstream XbaI (FIG. 15). Introduction of these mutations allowed the entire integrase gene with only minimal upstream and downstream nucleotides to be digested and “swapped” between drug-resistant and drug-sensitive clones.

Compound	IC50 (HIV-1 IN) [nM]	EC50 (HIVLAI) [nM]	LD5 (5% lethal dose, concentration at which cell growth is inhibited by 5%) (MT-2 cells) [µM]	concentration of the drug in the combination with L-CCA giving Fa (HIVNL4-3 clone 7-1; Fa 0.2) [nM]	concentration of the drug in the combination with L-CCA giving Fa (HIVNL4-3 clone 7-1; Fa 0.4) [nM]	concentration of the drug in the combination with L-CCA giving Fa (HIVNL4-3 clone 7-1; Fa 0.6) [nM]	concentration of the drug in the combination with L-CCA giving Fa (HIVNL4-3 clone 7-1; Fa 0.8) [nM]	concentration of the drug in the combination with L-CCA giving Fa (HIVNL4-3 clone 7-1; Fa 0.9) [nM]	concentration of the drug in the combination with L-CCA giving Fa (HIVNL4-3 M184V; Fa 0.2) [nM]	concentration of the drug in the combination with L-CCA giving Fa (HIVNL4-3 M184V; Fa 0.4) [nM]	concentration of the drug in the combination with L-CCA giving Fa (HIVNL4-3 M184V; Fa 0.6) [nM]	concentration of the drug in the combination with L-CCA giving Fa (HIVNL4-3 M184V; Fa 0.8) [nM]	concentration of the drug in the combination with L-CCA giving Fa (HIVNL4-3 M184V; Fa 0.9) [nM]	concentration of the drug in the combination with L-CCA giving Fa (HIVNL4-3 JF26/A7; Fa 0.2) [nM]	concentration of the drug in the combination with L-CCA giving Fa (HIVNL4-3 JF26/A7; Fa 0.4) [nM]	concentration of the drug in the combination with L-CCA giving Fa (HIVNL4-3 JF26/A7; Fa 0.6) [nM]	concentration of the drug in the combination with L-CCA giving Fa (HIVNL4-3 JF26/A7; Fa 0.8) [nM]	concentration of the drug in the combination with L-CCA giving Fa (HIVNL4-3 JF26/A7; Fa 0.9) [nM]	also measured
O=C(O)C(=Cc1ccc(O)c(O)c1)C(=Cc1ccc(O)c(O)c1)C(=O)O [Compound 37, Di-3,4-dihydroxybenzylidene succinic acid]	2190	8700	35	–	–	–	–	–	–	–	–	–	–	–	–	–	–	–	–
O=C(C=Cc1ccc(O)c(O)c1)NCC(OC(=O)C=Cc1ccc(O)c(O)c1)C(=O)O [Compound 40, Bis-dicaffeoyl-L-isoserine]	195	3000	175	–	–	–	–	–	–	–	–	–	–	–	–	–	–	–	–
O=C(C=Cc1ccc(O)c(O)c1)NCCCCC(NC(=O)C=Cc1ccc(O)c(O)c1)C(=O)O [Compound 41, 1,4-dicaffeoyl-L-lysine]	2230	3700	29.2	–	–	–	–	–	–	–	–	–	–	–	–	–	–	–	–
Nc1ccn([C@H]2CC[C@@H](CO)O2)c(=O)n1 [DDC, 2′,3′-dideoxycytidine]	–	–	–	12.4	21.1	32.8	56.0	87.1	21.6	43.2	76.8	153.7	273	13.0	23.8	39.2	71.8	118	susceptibility of the clone to the drug alone (HIVNL4-3 clone 7-1; HIVNL4-3 clone 7-1): increased susceptibility; susceptibility of the clone to the drug alone (HIVNL4-3 M184V): partial resistance
OC[C@@H]1CC[C@H](n2cnc3c(O)ncnc32)O1 [DDI, 2′,3′-dideoxyinosine]	–	–	–	–	–	–	–	–	–	–	–	–	–	–	–	–	–	–	susceptibility of the clone to the drug alone (HIVNL4-3 M184V): partial resistance
Cc1c(O)cccc1C(=O)N[C@@H](CSc1ccccc1)[C@H](O)CN1C[C@H]2CCCC[C@H]2C[C@H]1C(=O)NC(C)(C)C [Nelfinavir]	–	–	–	2.9	4.9	7.6	13.1	20.3	2.5	4.7	7.9	14.8	24.8	4.6	7.0	10.0	15.1	21.3	–
Cc1cn([C@H]2C[C@H](N=[N+]=[N-])[C@@H](CO)O2)c(=O)[nH]c1=O [Zidovudine, zidovudine]	–	–	–	2.7	8.7	22.9	73.8	194	4.9	10.2	18.9	39.6	73	150.2	259.8	409	707	1112	sensitivity of the clones to the drug compared with parental HIVNL4-3 (HIV-1NL4-3clone1-D4): same sensitivity; susceptibility of the clone to the drug alone (HIVNL4-3 JF26/A7; HIVNL4-3 JF26/A7): highly resistant
